The source of these data is patent US7378436B2, “Compounds” (Pfizer Inc., priority 2003, dated 2008).

Counter-ions that a name gives are not always drawn.

Assay [1] addresses T1, human noradrenaline transporter (hNET) (Homo sapiens, UniProt P23975).
T1 construct: expressed in transfected cells; host or cells: HEK-293
The assay is described as follows: Inhibition of 3H-noradrenaline uptake in HEK-293 cells expressing hNET. In kind it is cell-based. As to conditions: HEK-293 cells with hNET; 3H-noradrenaline 200 nM; 15 min incubation at 25° C.; read-out: NRI IC50. The method, then:
(§1) The compounds were tested for biological activity by their ability to inhibit the uptake of serotonin and/or noradrenaline by human serotonin and/or noradrenaline transporters as follows.
(§2) (i) Cell Culture • Human embryonic kidney cells (HEK-293) stably transfected with either the human serotonin transporter (hSERT), noradrenaline transporter (hNET) or dopamine transporter (hDAT) were cultured under standard cell culture techniques (cells were grown at 37° C. and 5% CO2in either Dulbecco's Modified Eagle's Medium (DMEM) culture media supplemented with 10% dialysed foetal calf serum (FCS), 2 mM L-glutamine and 250 μg/ml geneticin (hSERT and hNET cells) or DMEM-culture media supplemented with 5% FCS, 5% new-born calf serum, 2 mM L-glutamine and […] (hDAT cells)). Prior to assay, cells were harvested by dissociation using cell dissociation solution (Sigma) and centrifugation, and resuspended in standard assay buffer (see below) at a viable cell density of 750,000 cells/ml.
(§3) (i) Determination of Inhibitor Potency • All test compounds were dissolved in 100% DMSO at 4 mM and diluted down in 1% DMSO in water to give appropriate test concentrations. Assays were carried out in 96-well filter bottom plates. Cells expressing the appropriate human transporter protein (75,000 cells/assay well) were pre-incubated at 25° C. in standard assay buffer containing either test compound, a standard inhibitor (positive control) or compound vehicle (DMSO in water; final DMSO concentration was 0.1% in each assay well) for 5 minutes. Reactions were started by addition of either ^3H-serotonin, ^3H-noradrenaline or ^3H-dopamine substrates. All reactions were carried out at 25° C. in a shaking incubator. Incubation times were 5 minutes for the hSERT and hDAT assays and 15 minutes for the hNET assay. Reactions were terminated by addition of ice-cold wash buffer (see below), followed by filtration of the assay mixture using a vacuum manifold and rapid washing with icecold wash buffer. The quantity of ^3H-substrate incorporated into the cells was then quantified: Filtered/washed assay plates were dried at 45° C. for 1 hour, scintillation fluid added, and radioactivity measured by scintillation counting. Potency of test compounds was quantified as IC50 values (concentration of test compound required to inhibit the specific uptake of radiolabelled substrate into the cells by 50% relative to maximum (compound vehicle only) and minimum (complete inhibition by standard inhibitor) responses).
(§4) (iii) Standard Assay Buffer Composition: • Tris(hydroxymethyl)amino methane hydrochloride (26 mM) • NaCl (124 mM) • KCl (4.5 mM) • KH2PO4 (1.2 mM) • MgCl2.6H2O (1.3 mM) • Ascorbic acid (1.136 mM) • Glucose (5.55 mM) • pH 7.40 • CaCl2 (2.8 mM) • Pargyline (100 μM) • Note: The pH of the buffer was adjusted to 7.40 with 1 M NaOH before addition of CaCl2 and pargyline. • Wash Buffer Composition: • Tris(hydroxymethyl)methylamine (26 mM) • NaCl (124 mM) • KCl (4.5 mM) • KH2PO4 (1.2 mM) • MgCl2.6H2O (1.3 mM) • Ascorbic acid (1.136 mM) • pH 7.40 at 4° C. with 6M HCl
(§5) (iv) Summary of Assay Parameters

The target in assay [2] is T2, human serotonin transporter (hSERT) (Homo sapiens, UniProt P31645).
T2 construct: expressed in transfected cells; host or cells: HEK-293
The experiment in a line: Inhibition of 3H-serotonin uptake in HEK-293 cells expressing hSERT. In kind it is cell-based. The following applies: HEK-293 cells with hSERT; 3H-5HT 50 nM; 5 min incubation at 25° C.; read-out: SRI IC50. On the procedure: as §1, §2, §3, §4, §5

T2 sequence (P31645 whole entry): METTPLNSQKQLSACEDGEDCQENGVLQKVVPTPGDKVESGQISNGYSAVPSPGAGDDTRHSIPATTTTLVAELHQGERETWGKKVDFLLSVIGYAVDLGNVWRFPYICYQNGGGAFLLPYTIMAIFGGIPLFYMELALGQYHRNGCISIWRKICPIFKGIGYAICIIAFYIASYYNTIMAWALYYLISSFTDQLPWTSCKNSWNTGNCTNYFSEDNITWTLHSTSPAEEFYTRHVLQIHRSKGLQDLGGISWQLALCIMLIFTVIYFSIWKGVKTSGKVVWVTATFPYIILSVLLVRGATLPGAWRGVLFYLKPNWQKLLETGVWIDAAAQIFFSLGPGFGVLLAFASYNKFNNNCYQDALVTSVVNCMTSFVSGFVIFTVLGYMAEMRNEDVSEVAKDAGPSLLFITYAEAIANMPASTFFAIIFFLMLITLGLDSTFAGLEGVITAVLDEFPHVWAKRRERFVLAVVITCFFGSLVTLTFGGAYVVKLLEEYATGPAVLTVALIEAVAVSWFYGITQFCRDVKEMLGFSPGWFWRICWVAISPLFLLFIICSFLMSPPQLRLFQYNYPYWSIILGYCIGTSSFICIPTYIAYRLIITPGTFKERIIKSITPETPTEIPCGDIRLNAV
T1 sequence (P23975 whole entry): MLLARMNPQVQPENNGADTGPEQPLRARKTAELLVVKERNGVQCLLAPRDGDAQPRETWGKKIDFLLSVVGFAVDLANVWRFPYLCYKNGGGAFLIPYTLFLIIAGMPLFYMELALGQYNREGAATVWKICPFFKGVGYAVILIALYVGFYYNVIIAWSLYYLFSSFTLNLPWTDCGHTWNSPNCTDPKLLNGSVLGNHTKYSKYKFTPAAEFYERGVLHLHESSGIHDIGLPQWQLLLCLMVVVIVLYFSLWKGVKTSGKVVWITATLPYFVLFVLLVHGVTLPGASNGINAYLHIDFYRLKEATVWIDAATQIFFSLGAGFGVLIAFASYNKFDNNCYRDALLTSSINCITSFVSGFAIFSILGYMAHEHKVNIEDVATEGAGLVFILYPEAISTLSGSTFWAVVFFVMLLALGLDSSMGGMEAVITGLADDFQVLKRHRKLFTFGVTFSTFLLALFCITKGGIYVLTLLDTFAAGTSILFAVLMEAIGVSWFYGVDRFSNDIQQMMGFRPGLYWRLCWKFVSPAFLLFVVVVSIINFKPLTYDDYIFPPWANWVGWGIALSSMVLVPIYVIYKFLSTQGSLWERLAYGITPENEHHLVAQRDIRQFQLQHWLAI

Usually IC50 stands for the concentration that inhibits the measured activity by half. For the compound `CC(C)CN(C(=O)c1cccc(Cl)c1Cl)[C@H]1CCNC1` [Example 1, 2,3-Dichloro-N-isobutyl-N-[(3S)-pyrrolidin-3-yl]benzamide citrate], the IC50 came out at 14.1 nM in assay [1] and 13.9 nM in assay [2].

Take `CC(C)CN(C(=O)c1ccc(Cl)cc1Cl)[C@H]1CCNC1` [Example 2, 2,4-Dichloro-N-isobutyl-N-[(3S)-pyrrolidin-3-yl]benzamide hydrochloride]: the values for the 50% inhibitory concentration (IC50) in assay [1] and in assay [2] were 28.5 nM and 9.7 nM, respectively.

Consider `Cc1cccc(C(=O)N(CC(C)C)[C@H]2CCNC2)c1Cl` [Example 3, 2-Chloro-3-methyl-N-isobutyl-N-[(3S)-pyrrolidin-3-yl]benzamide], for which the results for the 50% inhibitory concentration (IC50) in assay [1] and in assay [2] were 21.2 nM and 22.3 nM, respectively.

On to `Cc1c(F)cccc1C(=O)N(CC(C)C)[C@H]1CCNC1` [Example 4, 3-Fluoro-2-methyl-N-isobutyl-N-[(3S)-pyrrolidin-3-yl]benzamide], for which the IC50 came out at 45.9 nM in assay [1] and 18.8 nM in assay [2].

Consider `COc1cccc(C(=O)N(CC(C)C)[C@H]2CCNC2)c1C` [Example 5, 3-Methoxy-2-methyl-N-isobutyl-N-[(3S)-pyrrolidin-3-yl]benzamide], for which the IC50 in assay [1] came out at 32.9 nM; in assay [2] it was 10.9 nM.

Take `CC(C)CN(C(=O)c1cccc(Cl)c1)[C@H]1CCNC1` [Example 6, 3-Chloro-N-isobutyl-N-[(3S)-pyrrolidin-3-yl]benzamide]: the half-inhibitory concentration (IC50) came to 56.9 nM in assay [1] and 45.2 nM in assay [2].

Turning to `CC(C)CN(C(=O)c1ccc(Cl)cc1)[C@H]1CCNC1` [Example 7, 4-Chloro-N-isobutyl-N-[(3S)-pyrrolidin-3-yl]benzamide], the IC50 amounted to 55.4 nM in assay [1] and 5.7 nM in assay [2].

For `CC(C)CN(C(=O)c1ccc(Cl)c(Cl)c1)[C@H]1CCNC1` [Example 8, 3,4-Dichloro-N-isobutyl-N-[(3S)-pyrrolidin-3-yl]benzamide], the IC50 in assay [1] amounted to 16.7 nM; in assay [2] it was 7.5 nM.

Regarding `O=C(c1ccccc1)N(Cc1ccc2ccccc2c1)[C@H]1CCNC1` [Example 9, N-(2-Naphthylmethyl)-N-[(3S)-pyrrolidin-3-yl]benzamide hydrochloride], the values for the IC50 in assay [1] and in assay [2] were 14 nM and 5.7 nM, respectively.

In the case of `O=C(c1ccccc1)N(Cc1ccc2ccccc2c1)[C@@H]1CCNC1` [Example 10, N-(2-Naphthylmethyl)-N-[(3R)-pyrrolidin-3-yl]benzamide hydrochloride], the IC50 in assay [1] amounted to 7.7 nM; in assay [2], 7.6 nM.

Consider `CC(C)CN(C(=O)c1ccc2ccccc2c1)[C@H]1CCNC1` [Example 11, N-Isobutyl-N-[(3S)-pyrrolidin-3-yl]-2-naphthamide hydrochloride], for which the values for the concentration for half-maximal inhibition (IC50) in assay [1] and in assay [2] were 17 nM and 3.2 nM, respectively.

Consider `CCCCN(C(=O)c1cccc2ccccc12)[C@H]1CCNC1` [Example 12, N-Butyl-N-[(3S)-pyrrolidin-3-yl]-1-naphthamide hydrochloride], for which the values for the IC50 in assay [1] and in assay [2] were 26.3 nM and 21.5 nM, respectively.

For the compound `O=C(c1ccc(Cl)cc1)N(Cc1ccc(Cl)c(Cl)c1)[C@@H]1CCNC1` [Example 13, 4-Chloro-N-(3,4-dichlorobenzyl)-N-[(3R)-pyrrolidin-3-yl]benzamide hydrochloride], the IC50 was 3.1 nM in assay [1] and 8.8 nM in assay [2].

As for `O=C(c1ccc(Cl)cc1)N(Cc1cccc(Cl)c1Cl)[C@@H]1CCNC1` [Example 14, 4-Chloro-N-(2,3-dichlorobenzyl)-N-[(3R)-pyrrolidin-3-yl]benzamide hydrochloride], the IC50 in assay [1] came out at 57.1 nM; in assay [2], 43 nM.

`CC(C)CN(C(=O)c1cc(F)c(Cl)cc1Cl)[C@H]1CCNC1` [Example 15, 2,4-Dichloro-5-fluoro-N-isobutyl-N-[(3S)-pyrrolidin-3-yl]benzamide hydrochloride]: the values for the IC50 in assay [1] and in assay [2] were 71.6 nM and 17.5 nM, respectively.
